Experiments:
Mice [1] = experiment: Analgesic activity by pressure stimulation method, Method B (apparatus made by Professor S. Sakurada, tail pressure in mmHg); type: in vivo; settings: for ED50: Mus musculus, read-out: ED50 (dose that induced 50 percent of % of MPE)
Experimental: (§1) The analgesic activities of the peptide derivatives of the present invention were evaluated by the pressure stimulation method using one of two devices. In method A, analgesy meter Model 7,200 manufactured by UGO BASILE (Comerio, Italy) was used (units of tail pressure expressed in grams). In method B, an apparatus made by inventor Professor S. Sakurada was used (units of tail pressure expressed in mmHg). Mice were subjected to pressure stimulation at the bases of their tails at a given rate(Method A: 32 g/s; Method B: 10 mmHg/second). […] For the experiments, mice that normally responded to a given pressure of 100-200 g (Method A) or 40-50 mmHg (Method B) were used. The maximum stimulating pressure was 500 g (Method A) or 100 mmHg (Method B). Analgesic activity was calculated as percent of maximum possible effect (% of MPE) according to the equation: [formula]
(§2) Wherein Po is the pain reaction threshold before the administration of a drug; Pt is the pain reaction threshold “t” minutes after the administration of the drug; and Pc is the maximum stimulating pressure. ED5 0 values were calculated based on dose response curves as doses that induced 50 percent of % of MPE and analgesic activities of the drugs were compared. The results obtained from subcutaneous administration (s.c.; skin on the backs of the mice was used) and oral administration (p.o.) are shown in Table 3.

Mice [2] = experiment: Analgesic activity by pressure stimulation method, Method A (UGO BASILE analgesy meter Model 7,200, tail pressure in grams); type: in vivo; settings: for ED50: Mus musculus, read-out: ED50 (dose that induced 50 percent of % of MPE)
Experimental: as §1, §2

Row | Compound | ED50 (dose that induced 50 percent of % of MPE) (Mice [2]; p.o.) | ED50 (dose that induced 50 percent of % of MPE) (Mice [2]; s.c.) | ED50 (dose that induced 50 percent of % of MPE) (Mice [1]; s.c.) | also measured
1 | CN1CC[C@]23c4c5ccc(O)c4O[C@H]2[C@@H](O)C=C[C@H]3[C@H]1C5 [morphine, reference compound] |  |  |  | ED50 (Mice [1]; po): 29.6 mg/kg; ED50 (Mice [1]; sc): 4.6 mg/kg; ED50 (Mice [2]; po): 22.2 mg/kg; ED50 (Mice [2]; sc): 3.3 mg/kg
2 | H2NC(NH)-Tyr-D-Arg-Phe-N(CH3)CH2CH2COOH | 5.8 mg/kg | 0.09 mg/kg |  | 
3 | H2NC(NH)-Tyr-D-Arg-Phe-N(CH3)CH2COHN2 |  |  | 0.27 mg/kg | 
4 | H2NC(NH)-Tyr-D-Arg-Phe-N(CH3)CH2COOH |  |  | 0.13 mg/kg | ED50 (dose that induced 50 percent of % of MPE) (Mice [1]; p.o.): 4.9 mg/kg
5 | H2NC(NH)-Tyr-D-Arg-Phe-N(Me)2 |  |  | 1.22 mg/kg | 
6 | H2NC(NH)-Tyr-D-Arg-Phe-NHCH2CH2COOH | 18.5 mg/kg | 0.32 mg/kg |  | 
